From patent US7968526B2, “Antisense oligonucleotides directed to ribonucleotide reductase R2 and uses thereof in the treatment of cancer” (Lorus Therapeutics Inc., priority 2003, dated 2011)

Experiment: Tissue distribution in the rat (CE method)
Type: in vivo
Protocol: The toxicokinetics and tissue distribution of SEQ ID NO:1 (and related oligonucleotide metabolites obtained from exonuclease-mediated chain shortening) were determined in rats and monkeys. In addition to investigating the pharmacokinetics and tissue distribution of SEQ ID NO:1, the purpose of the studies was to correlate adverse effects in the animal studies to the concentrations of SEQ ID NO:1 (and metabolites) in tissue and blood. A capillary electrophoresis (CE) method was used to measure the concentrations of SEQ ID NO:1 (and metabolites) in plasma and tissues.
The concentrations of SEQ ID NO:1 (and related n+1, n−1 to n−15 oligonucleotide metabolites) in the following rat and monkey tissues were measured by a validated CE method (Southwest Bio-Labs, Inc.): kidney, liver, spleen, heart, lung, bone marrow (rat), lymph nodes (monkey) and brain tissues. The tissue samples were collected from the designated animals as described in the 21-day toxicity studies: rats, administered bolus intravenous injections of SEQ ID NO:1 every other day at 2, 10, or 50 mg/kg; and monkeys administered SEQ ID NO:1 by continuous intravenous infusion at 2, 10, or 50 mg/kg/day.

[1] = 10 mg/kg bolus i.v. every other day, 4 hrs post last dose
[2] = 10 mg/kg bolus i.v. every other day, 48 hrs post first dose
[3] = 50 mg/kg bolus i.v. every other day, 4 hrs post first dose
[4] = 50 mg/kg bolus i.v. every other day, 4 hrs post last dose
[5] = 50 mg/kg bolus i.v. every other day, 48 hrs post first dose

5′-GGCTAAATCGCTCCACCAAG-3′ (all phosphorothioate, sugars by position and methylation of C not given here) [SEQ ID NO: 1, fully phosphorothioated antisense oligonucleotide that hybridizes to the coding region of R2 mRNA]
Mean Concentration SEQ ID NO: 1, Brain [1]: BDL (below detectable limits (1 μg/g rat; 0.2 μg/g monkey))
Mean Concentration SEQ ID NO: 1, Heart [1]: BDL (below detectable limits (1 μg/g rat; 0.2 μg/g monkey))
Mean Concentration SEQ ID NO: 1, Kidney [1]: 129.5 µg/g
Mean Concentration SEQ ID NO: 1, Liver [1]: 38.1 µg/g
Mean Concentration SEQ ID NO: 1, Lung [1]: 2.1 µg/g
Mean Concentration SEQ ID NO: 1, Spleen [1]: 3.2 µg/g
Mean Concentration total metabolites (n + 1 through n − 13), Bone Marrow [1]: 6.6 µg/g
Mean Concentration total metabolites (n + 1 through n − 13), Brain [1]: BDL (below detectable limits (1 μg/g rat; 0.2 μg/g monkey))
Mean Concentration total metabolites (n + 1 through n − 13), Heart [1]: 9.4 µg/g
Mean Concentration total metabolites (n + 1 through n − 13), Kidney [1]: 613.5 µg/g
Mean Concentration total metabolites (n + 1 through n − 13), Liver [1]: 105.9 µg/g
Mean Concentration total metabolites (n + 1 through n − 13), Lung [1]: 3.3 µg/g
Mean Concentration total metabolites (n + 1 through n − 13), Spleen [1]: 13.5 µg/g
Mean Concentration SEQ ID NO: 1, Bone Marrow [2]: BDL (below detectable limits (1 μg/g rat; 0.2 μg/g monkey))
Mean Concentration SEQ ID NO: 1, Brain [2]: BDL (below detectable limits (1 μg/g rat; 0.2 μg/g monkey))
Mean Concentration SEQ ID NO: 1, Heart [2]: BDL (below detectable limits (1 μg/g rat; 0.2 μg/g monkey))
Mean Concentration SEQ ID NO: 1, Kidney [2]: 13.3 µg/g
Mean Concentration SEQ ID NO: 1, Liver [2]: 4.7 µg/g
Mean Concentration SEQ ID NO: 1, Lung [2]: BDL (below detectable limits (1 μg/g rat; 0.2 μg/g monkey))
Mean Concentration SEQ ID NO: 1, Spleen [2]: BDL (below detectable limits (1 μg/g rat; 0.2 μg/g monkey))
Mean Concentration total metabolites (n + 1 through n − 13), Bone Marrow [2]: BDL (below detectable limits (1 μg/g rat; 0.2 μg/g monkey))
Mean Concentration total metabolites (n + 1 through n − 13), Brain [2]: BDL (below detectable limits (1 μg/g rat; 0.2 μg/g monkey))
Mean Concentration total metabolites (n + 1 through n − 13), Heart [2]: BDL (below detectable limits (1 μg/g rat; 0.2 μg/g monkey))
Mean Concentration total metabolites (n + 1 through n − 13), Kidney [2]: 68.4 µg/g
Mean Concentration total metabolites (n + 1 through n − 13), Liver [2]: 8.3 µg/g
Mean Concentration total metabolites (n + 1 through n − 13), Lung [2]: BDL (below detectable limits (1 μg/g rat; 0.2 μg/g monkey))
Mean Concentration total metabolites (n + 1 through n − 13), Spleen [2]: BDL (below detectable limits (1 μg/g rat; 0.2 μg/g monkey))
Mean Concentration SEQ ID NO: 1, Bone Marrow [3]: 13.2 µg/g
Mean Concentration SEQ ID NO: 1, Brain [3]: BDL (below detectable limits (1 μg/g rat; 0.2 μg/g monkey))
Mean Concentration SEQ ID NO: 1, Heart [3]: 14.5 µg/g
Mean Concentration SEQ ID NO: 1, Kidney [3]: 86.1 µg/g
Mean Concentration SEQ ID NO: 1, Liver [3]: 51.9 µg/g
Mean Concentration SEQ ID NO: 1, Lung [3]: 13.3 µg/g
Mean Concentration SEQ ID NO: 1, Spleen [3]: 32.7 µg/g
Mean Concentration total metabolites (n + 1 through n − 13), Bone Marrow [3]: 19.5 µg/g
Mean Concentration total metabolites (n + 1 through n − 13), Brain [3]: BDL (below detectable limits (1 μg/g rat; 0.2 μg/g monkey))
Mean Concentration total metabolites (n + 1 through n − 13), Heart [3]: 13.0 µg/g
Mean Concentration total metabolites (n + 1 through n − 13), Kidney [3]: 187 µg/g
Mean Concentration total metabolites (n + 1 through n − 13), Liver [3]: 79.9 µg/g
Mean Concentration total metabolites (n + 1 through n − 13), Lung [3]: 21.8 µg/g
Mean Concentration total metabolites (n + 1 through n − 13), Spleen [3]: 19.9 µg/g
Mean Concentration SEQ ID NO: 1, Bone Marrow [4]: 29.9 µg/g
Mean Concentration SEQ ID NO: 1, Brain [4]: BDL (below detectable limits (1 μg/g rat; 0.2 μg/g monkey))
Mean Concentration SEQ ID NO: 1, Heart [4]: 20.8 µg/g
Mean Concentration SEQ ID NO: 1, Kidney [4]: 286.6 µg/g
Mean Concentration SEQ ID NO: 1, Liver [4]: 91.6 µg/g
Mean Concentration SEQ ID NO: 1, Lung [4]: 18.2 µg/g
Mean Concentration SEQ ID NO: 1, Spleen [4]: 18.4 µg/g
Mean Concentration total metabolites (n + 1 through n − 13), Bone Marrow [4]: 67.4 µg/g
Mean Concentration total metabolites (n + 1 through n − 13), Brain [4]: BDL (below detectable limits (1 μg/g rat; 0.2 μg/g monkey))
Mean Concentration total metabolites (n + 1 through n − 13), Heart [4]: 42.5 µg/g
Mean Concentration total metabolites (n + 1 through n − 13), Kidney [4]: 1373.6 µg/g
Mean Concentration total metabolites (n + 1 through n − 13), Liver [4]: 279.7 µg/g
Mean Concentration total metabolites (n + 1 through n − 13), Lung [4]: 30.0 µg/g
Mean Concentration total metabolites (n + 1 through n − 13), Spleen [4]: 60.8 µg/g
Mean Concentration SEQ ID NO: 1, Bone Marrow [5]: 2.8 µg/g
Mean Concentration SEQ ID NO: 1, Brain [5]: BDL (below detectable limits (1 μg/g rat; 0.2 μg/g monkey))
Mean Concentration SEQ ID NO: 1, Heart [5]: 2.5 µg/g
Mean Concentration SEQ ID NO: 1, Kidney [5]: 48.2 µg/g
Mean Concentration SEQ ID NO: 1, Liver [5]: 19.8 µg/g
Mean Concentration SEQ ID NO: 1, Lung [5]: 2.1 µg/g
Mean Concentration SEQ ID NO: 1, Spleen [5]: 1.4 µg/g
Mean Concentration total metabolites (n + 1 through n − 13), Bone Marrow [5]: 4.4 µg/g
Mean Concentration total metabolites (n + 1 through n − 13), Brain [5]: BDL (below detectable limits (1 μg/g rat; 0.2 μg/g monkey))
Mean Concentration total metabolites (n + 1 through n − 13), Heart [5]: 7.2 µg/g
Mean Concentration total metabolites (n + 1 through n − 13), Kidney [5]: 287.6 µg/g
Mean Concentration total metabolites (n + 1 through n − 13), Liver [5]: 68.7 µg/g
Mean Concentration total metabolites (n + 1 through n − 13), Lung [5]: 3.8 µg/g
Mean Concentration total metabolites (n + 1 through n − 13), Spleen [5]: 2.2 µg/g
Concentrations in the brain (lower limit for detection 1 μg/g): below the limits of detection
